Assay results published in PubChem BioAssay (NCI).
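In this assay, cells in 96-well plates receive the compound at five concentrations for 48 hours. Endpoints are linearly interpolated between the surrounding concentrations. TGI denotes the concentration required for complete inhibition of growth.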

Columns and labels:
Experiment in all cases: NCI tumour cell line growth inhibition, 48 h
HCC-2998 colon = system: HCC-2998 colon
786-0 renal = system: 786-0 renal
A549 NSCLC = system: A549 NSCLC
OVCAR-5 ovarian = system: OVCAR-5 ovarian
ACHN renal = system: ACHN renal
SK-OV-3 ovarian = system: SK-OV-3 ovarian
MDA-N = system: MDA-N
T-47D breast = system: T-47D breast
DLD-1 colon = system: DLD-1 colon
SW-620 colon = system: SW-620 colon
OVCAR-3 ovarian = system: OVCAR-3 ovarian
A498 renal = system: A498 renal
DU-145 prostate = system: DU-145 prostate
NCI/ADR-RES ovarian = system: NCI/ADR-RES ovarian
HL-60(TB) leukemia = system: HL-60(TB) leukemia
HOP-18 NSCLC = system: HOP-18 NSCLC
KM20L2 colon = system: KM20L2 colon
HCT-116 colon = system: HCT-116 colon
PC-3 prostate = system: PC-3 prostate
UACC-257 melanoma = system: UACC-257 melanoma
UO-31 renal = system: UO-31 renal
TK-10 renal = system: TK-10 renal
SNB-19 CNS = system: SNB-19 CNS
OVCAR-8 ovarian = system: OVCAR-8 ovarian
M19-MEL melanoma = system: M19-MEL melanoma
MCF7 breast = system: MCF7 breast
HS 578T breast = system: HS 578T breast
HT29 colon = system: HT29 colon
UACC-62 melanoma = system: UACC-62 melanoma
HCT-15 colon = system: HCT-15 colon
DMS 114 small cell lung = system: DMS 114 small cell lung
M14 melanoma = system: M14 melanoma
RPMI-8226 leukemia = system: RPMI-8226 leukemia
MALME-3M melanoma = system: MALME-3M melanoma
SF-539 CNS = system: SF-539 CNS
NCI-H23 lung = system: NCI-H23 lung
DMS 273 small cell lung = system: DMS 273 small cell lung
K-562 leukemia = system: K-562 leukemia
CAKI-1 renal = system: CAKI-1 renal
SNB-75 CNS = system: SNB-75 CNS
SR leukemia = system: SR leukemia
COLO 205 colon = system: COLO 205 colon
MOLT-4 leukemia = system: MOLT-4 leukemia
SK-MEL-5 melanoma = system: SK-MEL-5 melanoma
LOX IMVI melanoma = system: LOX IMVI melanoma
NCI-H522 lung = system: NCI-H522 lung
KM12 colon = system: KM12 colon
HOP-92 NSCLC = system: HOP-92 NSCLC
IGROV1 ovarian = system: IGROV1 ovarian
CCRF-CEM leukemia = system: CCRF-CEM leukemia
EKVX NSCLC = system: EKVX NSCLC
SF-295 CNS = system: SF-295 CNS
RXF 393 renal = system: RXF 393 renal
BT-549 breast = system: BT-549 breast
SN12C renal = system: SN12C renal
SNB-78 CNS = system: SNB-78 CNS
SK-MEL-2 melanoma = system: SK-MEL-2 melanoma
NCI-H226 lung = system: NCI-H226 lung
SK-MEL-28 melanoma = system: SK-MEL-28 melanoma
U251 CNS = system: U251 CNS
SF-268 CNS = system: SF-268 CNS
LXFL 529 NSCLC = system: LXFL 529 NSCLC
MDA-MB-435 = system: MDA-MB-435
HOP-62 NSCLC = system: HOP-62 NSCLC
MDA-MB-231 breast = system: MDA-MB-231 breast
NCI-H460 lung = system: NCI-H460 lung
OVCAR-4 ovarian = system: OVCAR-4 ovarian

CC1CSC(=S)N1C(=O)N1C(=S)SCC1C (stereo unspecified)
TGI (HCC-2998 colon): > 80.5 µM | TGI (786-0 renal): 53.6 µM | TGI (A549 NSCLC): 91.8 µM | TGI (OVCAR-5 ovarian): 64.7 µM | TGI (ACHN renal): 36.1 µM | TGI (SK-OV-3 ovarian): > 100 µM | TGI (MDA-N): 50.7 µM | TGI (T-47D breast): > 100 µM | TGI (DLD-1 colon): 44.4 µM | TGI (SW-620 colon): 49.4 µM | TGI (OVCAR-3 ovarian): 82.3 µM | TGI (A498 renal): 60.7 µM | TGI (DU-145 prostate): 45.2 µM | TGI (NCI/ADR-RES ovarian): 41.7 µM | TGI (HL-60(TB) leukemia): 88.3 µM | TGI (HOP-18 NSCLC): > 100 µM | TGI (KM20L2 colon): > 100 µM | TGI (HCT-116 colon): 42.9 µM | TGI (PC-3 prostate): 67.2 µM | TGI (UACC-257 melanoma): 43.4 µM | TGI (UO-31 renal): 58.7 µM | TGI (TK-10 renal): 74.8 µM | TGI (SNB-19 CNS): > 100 µM | TGI (OVCAR-8 ovarian): 32.3 µM | TGI (M19-MEL melanoma): 81.7 µM | TGI (MCF7 breast): 60.5 µM | TGI (HS 578T breast): > 82.9 µM | TGI (HT29 colon): 73 µM | TGI (UACC-62 melanoma): 27.4 µM | TGI (HCT-15 colon): 34.8 µM | TGI (DMS 114 small cell lung): > 100 µM | TGI (M14 melanoma): 53.9 µM | TGI (RPMI-8226 leukemia): 66.2 µM | TGI (MALME-3M melanoma): 45.2 µM | TGI (SF-539 CNS): 41.4 µM | TGI (NCI-H23 lung): 43.1 µM | TGI (DMS 273 small cell lung): 49.5 µM | TGI (K-562 leukemia): 60.9 µM | TGI (CAKI-1 renal): 61.7 µM | TGI (SNB-75 CNS): 88.1 µM | TGI (SR leukemia): 59.3 µM | TGI (COLO 205 colon): 37.2 µM | TGI (MOLT-4 leukemia): 81.9 µM | TGI (SK-MEL-5 melanoma): 34.8 µM | TGI (LOX IMVI melanoma): 36.4 µM | TGI (NCI-H522 lung): 26.7 µM | TGI (KM12 colon): 84.9 µM | TGI (HOP-92 NSCLC): 73 µM | TGI (IGROV1 ovarian): 53.3 µM | TGI (CCRF-CEM leukemia): 48.5 µM | TGI (EKVX NSCLC): 63.4 µM | TGI (SF-295 CNS): 98.1 µM | TGI (RXF 393 renal): 38.6 µM | TGI (BT-549 breast): 63.9 µM | TGI (SN12C renal): 54.4 µM | TGI (SNB-78 CNS): > 100 µM | TGI (SK-MEL-2 melanoma): 53.2 µM | TGI (NCI-H226 lung): 71.7 µM | TGI (SK-MEL-28 melanoma): 41.9 µM | TGI (U251 CNS): 53.5 µM | TGI (SF-268 CNS): 74.6 µM | TGI (LXFL 529 NSCLC): > 100 µM | TGI (MDA-MB-435): 46.6 µM | TGI (HOP-62 NSCLC): > 82.8 µM | TGI (MDA-MB-231 breast): 64.8 µM | TGI (NCI-H460 lung): 59 µM

O=C1/C(=C/c2ccccc2)CN(C(=O)C(F)(F)F)C/C1=C\c1ccccc1
TGI (786-0 renal): 3.28 µM | TGI (A549 NSCLC): 12.1 µM | TGI (OVCAR-5 ovarian): 8.37 µM | TGI (ACHN renal): 4.99 µM | TGI (DLD-1 colon): 4.27 µM | TGI (SW-620 colon): 1.83 µM | TGI (OVCAR-3 ovarian): 10.7 µM | TGI (A498 renal): 4.41 µM | TGI (HL-60(TB) leukemia): 2.85 µM | TGI (HOP-18 NSCLC): 18.4 µM | TGI (KM20L2 colon): 4.34 µM | TGI (HCT-116 colon): 1.08 µM | TGI (UACC-257 melanoma): 3.32 µM | TGI (UO-31 renal): 4.77 µM | TGI (TK-10 renal): 13.4 µM | TGI (SNB-19 CNS): 14.8 µM | TGI (OVCAR-8 ovarian): 3.37 µM | TGI (M19-MEL melanoma): 3.1 µM | TGI (HT29 colon): 3.01 µM | TGI (UACC-62 melanoma): 3.76 µM | TGI (HCT-15 colon): 5.33 µM | TGI (DMS 114 small cell lung): 3.33 µM | TGI (M14 melanoma): 3.29 µM | TGI (RPMI-8226 leukemia): 0.932 µM | TGI (MALME-3M melanoma): 15.9 µM | TGI (SF-539 CNS): 4.06 µM | TGI (NCI-H23 lung): 4.52 µM | TGI (DMS 273 small cell lung): 2.95 µM | TGI (K-562 leukemia): > 100 µM | TGI (SNB-75 CNS): 19 µM | TGI (SR leukemia): 5.48 µM | TGI (COLO 205 colon): 5.11 µM | TGI (MOLT-4 leukemia): 79.6 µM | TGI (OVCAR-4 ovarian): 4.72 µM | TGI (SK-MEL-5 melanoma): 3.26 µM | TGI (LOX IMVI melanoma): 2.5 µM | TGI (NCI-H522 lung): 5.77 µM | TGI (KM12 colon): 3.98 µM | TGI (IGROV1 ovarian): 5.55 µM | TGI (CCRF-CEM leukemia): 8.03 µM | TGI (SF-295 CNS): 3.13 µM | TGI (RXF 393 renal): 3.63 µM | TGI (SN12C renal): 3.12 µM | TGI (SNB-78 CNS): 11.4 µM | TGI (SK-MEL-2 melanoma): 23.1 µM | TGI (SK-MEL-28 melanoma): 3.45 µM | TGI (U251 CNS): 2.95 µM | TGI (LXFL 529 NSCLC): 3.26 µM | TGI (HOP-62 NSCLC): 29.6 µM | TGI (NCI-H460 lung): 2.97 µM
